Experimental data: US10059717B2, “Urea compounds containing 3,4-dihydropyrimido[4,5-D]pyrimidin-2(1H)-one skeleton as protein kinase inhibitors” (KOREA INSTITUTE OF SCIENCE AND TECHNOLOGY, priority 2016, dated 2018)

Assays:
Assay in all cases: Kinase panel biochemical assay
Details in all cases: 1 μM single concentration, read-out: % residual enzyme activity
[1] = molecular target: ABL2/ARG (Homo sapiens, UniProt P42684)
Procedure: (§1) In order to measure the protein kinase inhibitory activity (% inhibition) of the compounds of the present invention, biochemical assays were performed on the full kinase panel listed in the following Table 1.
(§2) As an test compound, 1-(3-(7-((6-(4-ethylpiperazine-1-carbonyl)pyridin-3-yl)amino)-1-methyl-2-oxo-1,4-dihydropyrimido[4,5-d]pyrimidin-3(2H)-yl)-4-methylphenyl)-3-(2-methoxyphenyl)urea (Compound No. 14) was used. The kinase inhibitory efficacy was measured upon treatment with a 1 μM single concentration of the test compound to calculate % residual enzyme activity value.
(§3) ABL1, FGFR2, TAOK2/TAO1, EPHA5, EPHB2, EPHB3, RET, LYN B, EPHA2, FRK/PTK5, EPHA8, LCK, EPHB4, FYN, KHS/MAP4K5, DDR1, EPHA3, P38a/MAPK14, EPHA4, FMS, EPHB1, HCK, FGFR1, ABL2/ARG, EPHA6, c-Src, ACK1, FLT4NEGFR3, ERBB4/HER4, DDR2, KDRNEGFR2, LYN, ZAK/MLTK, YES/YES1, BLK, FGR, MLCK2/MYLK2, TAOK1, BMX/ETK, BTK, EPHA1, JAK1, P38b/MAPK11, TIE2/TEK, FLT1NEGFR1, TXK, SRMS, RAF1, SIK1, MLK3/MAP3K11, PEAK1, TRKA, EPHA7, GLK/MAP4K3, MLK2/MAP3K10, TEC, CSK, TRKC, FES/FPS, SIK2, FGFR3, BRK, YSK4/MAP3K19, ARAF, PDGFRb, TNK1, GCK/MAP4K2, PDGFRa, TNIK, TAK1, ERBB2/HER2, LIMK1, HIPK4, FER, EGFR, JAK2, HPK1/MAP4K1, TRKB, RIPK3, LOK/STK10, LIMK2, MLK1/MAP3K9, BRAF, MEKK3, MEK5, STK32B/YANK2, FGFR4, MEKK2, SLK/STK2, FLT3, PKAcg, TAOK3/JIK, TYRO3/SKY, SIK3, IR, LRRK2, PYK2, NEK11, p70S6K/RPS6KB1, LATS2.

[2] = molecular target: EGFR (Homo sapiens, UniProt P00533)
Procedure: as §1, §2, §3

[3] = molecular target: EPHA1 (Homo sapiens, UniProt P21709)
Procedure: as §1, §2, §3

[4] = molecular target: EPHA3 (Homo sapiens, UniProt P29320)
Procedure: as §1, §2, §3

[5] = molecular target: EPHA4 (Homo sapiens, UniProt P54764)
Procedure: as §1, §2, §3

[6] = molecular target: EPHA5 (Homo sapiens, UniProt P54756)
Procedure: as §1, §2, §3

[7] = molecular target: FER (Homo sapiens, UniProt P16591)
Procedure: as §1, §2, §3

[8] = molecular target: FLT3 (Homo sapiens, UniProt P36888)
Procedure: as §1, §2, §3

[9] = molecular target: FLT4NEGFR3 (Homo sapiens, UniProt P35916)
Procedure: as §1, §2, §3

[10] = molecular target: FRK/PTK5 (Homo sapiens, UniProt P42685)
Procedure: as §1, §2, §3

[11] = molecular target: GCK/MAP4K2 (Homo sapiens, UniProt Q12851)
Procedure: as §1, §2, §3

[12] = molecular target: HIPK4 (Homo sapiens, UniProt Q8NE63)
Procedure: as §1, §2, §3

[13] = molecular target: LYN (Homo sapiens, UniProt P07948)
Procedure: as §1, §2, §3

[14] = molecular target: LYN B (Homo sapiens, UniProt P07948)
Procedure: as §1, §2, §3

[15] = molecular target: MLK2/MAP3K10 (Homo sapiens, UniProt Q02779)
Procedure: as §1, §2, §3

[16] = molecular target: P38a/MAPK14 (Homo sapiens, UniProt Q16539)
Procedure: as §1, §2, §3

[17] = molecular target: PKAcg (Homo sapiens, UniProt P22612)
Procedure: as §1, §2, §3

[18] = molecular target: RET (Homo sapiens, UniProt P07949)
Procedure: as §1, §2, §3

[19] = molecular target: RIPK3 (Homo sapiens, UniProt Q9Y572)
Procedure: as §1, §2, §3

[20] = molecular target: SIK1 (Homo sapiens, UniProt P57059)
Procedure: as §1, §2, §3

[21] = molecular target: SLK/STK2 (Homo sapiens, UniProt Q9H2G2)
Procedure: as §1, §2, §3

[22] = molecular target: SRMS (Homo sapiens, UniProt Q9H3Y6)
Procedure: as §1, §2, §3

[23] = molecular target: STK32B/YANK2 (Homo sapiens, UniProt Q9NY57)
Procedure: as §1, §2, §3

[24] = molecular target: TEC (Homo sapiens, UniProt P42680)
Procedure: as §1, §2, §3

[25] = molecular target: TIE2/TEK (Homo sapiens, UniProt Q02763)
Procedure: as §1, §2, §3

[26] = molecular target: TNIK (Homo sapiens, UniProt Q9UKE5)
Procedure: as §1, §2, §3

[27] = molecular target: TNK1 (Homo sapiens, UniProt Q13470)
Procedure: as §1, §2, §3

[28] = molecular target: TRKB (Homo sapiens, UniProt Q16620)
Procedure: as §1, §2, §3

[29] = molecular target: TRKC (Homo sapiens, UniProt Q16288)
Procedure: as §1, §2, §3

[30] = molecular target: TYRO3/SKY (Homo sapiens, UniProt Q06418)
Procedure: as §1, §2, §3

[31] = molecular target: p70S6K/RPS6KB1 (Homo sapiens, UniProt P23443)
Procedure: as §1, §2, §3

Measured: remaining activity at 1 µM

LYN, sequence (P07948 whole entry): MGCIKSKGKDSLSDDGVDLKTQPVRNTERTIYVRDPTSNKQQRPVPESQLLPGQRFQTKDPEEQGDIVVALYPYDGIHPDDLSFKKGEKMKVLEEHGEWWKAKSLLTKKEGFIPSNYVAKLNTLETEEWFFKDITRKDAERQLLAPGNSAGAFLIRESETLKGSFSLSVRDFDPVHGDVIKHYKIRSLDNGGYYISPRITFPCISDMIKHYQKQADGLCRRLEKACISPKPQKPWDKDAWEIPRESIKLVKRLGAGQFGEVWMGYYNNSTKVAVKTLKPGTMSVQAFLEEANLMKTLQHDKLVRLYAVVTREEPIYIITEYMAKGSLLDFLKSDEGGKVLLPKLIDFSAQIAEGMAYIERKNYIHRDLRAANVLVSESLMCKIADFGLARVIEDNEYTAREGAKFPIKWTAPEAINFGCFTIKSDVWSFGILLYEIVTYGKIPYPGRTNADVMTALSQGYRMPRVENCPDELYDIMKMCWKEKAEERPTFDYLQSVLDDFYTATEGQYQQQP
PKAcg, sequence (P22612 whole entry): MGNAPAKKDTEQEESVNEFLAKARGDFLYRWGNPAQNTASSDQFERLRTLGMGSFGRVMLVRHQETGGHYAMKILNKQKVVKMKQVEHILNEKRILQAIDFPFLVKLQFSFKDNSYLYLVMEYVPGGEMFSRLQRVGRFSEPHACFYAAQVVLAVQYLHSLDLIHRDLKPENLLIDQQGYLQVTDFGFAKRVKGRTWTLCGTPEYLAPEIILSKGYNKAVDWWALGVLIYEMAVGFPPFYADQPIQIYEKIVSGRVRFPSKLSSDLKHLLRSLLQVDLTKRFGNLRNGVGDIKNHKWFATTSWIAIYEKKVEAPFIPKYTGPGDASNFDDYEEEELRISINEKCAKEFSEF
ABL2/ARG, sequence (P42684 whole entry): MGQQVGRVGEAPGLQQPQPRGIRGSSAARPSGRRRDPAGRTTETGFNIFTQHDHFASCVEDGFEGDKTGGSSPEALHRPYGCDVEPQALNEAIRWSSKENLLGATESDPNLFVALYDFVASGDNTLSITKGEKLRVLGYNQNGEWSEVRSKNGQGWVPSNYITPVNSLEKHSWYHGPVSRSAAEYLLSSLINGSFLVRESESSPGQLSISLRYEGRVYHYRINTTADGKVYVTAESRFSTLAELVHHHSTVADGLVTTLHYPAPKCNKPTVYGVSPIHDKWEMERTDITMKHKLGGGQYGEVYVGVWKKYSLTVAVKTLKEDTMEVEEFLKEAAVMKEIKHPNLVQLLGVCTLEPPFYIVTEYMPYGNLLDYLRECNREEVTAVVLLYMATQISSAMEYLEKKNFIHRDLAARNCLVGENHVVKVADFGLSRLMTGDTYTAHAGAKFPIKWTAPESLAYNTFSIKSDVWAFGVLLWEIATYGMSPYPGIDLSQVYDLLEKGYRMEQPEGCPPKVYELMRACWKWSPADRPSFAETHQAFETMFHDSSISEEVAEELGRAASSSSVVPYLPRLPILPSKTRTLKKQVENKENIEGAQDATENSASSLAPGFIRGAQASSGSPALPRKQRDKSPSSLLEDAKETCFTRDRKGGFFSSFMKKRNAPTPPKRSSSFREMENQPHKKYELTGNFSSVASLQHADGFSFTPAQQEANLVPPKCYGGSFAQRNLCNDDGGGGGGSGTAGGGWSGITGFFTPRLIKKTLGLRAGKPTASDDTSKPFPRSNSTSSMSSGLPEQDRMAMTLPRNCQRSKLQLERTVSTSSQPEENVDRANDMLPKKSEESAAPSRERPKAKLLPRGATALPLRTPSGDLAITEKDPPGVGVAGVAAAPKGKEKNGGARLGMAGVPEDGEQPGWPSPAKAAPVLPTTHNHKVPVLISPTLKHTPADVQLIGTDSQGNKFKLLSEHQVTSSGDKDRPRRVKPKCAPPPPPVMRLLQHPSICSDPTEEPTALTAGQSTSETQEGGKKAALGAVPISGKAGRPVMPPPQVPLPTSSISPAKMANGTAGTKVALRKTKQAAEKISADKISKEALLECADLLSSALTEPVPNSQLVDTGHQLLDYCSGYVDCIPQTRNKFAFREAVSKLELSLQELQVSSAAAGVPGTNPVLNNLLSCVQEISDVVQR
TIE2/TEK, sequence (Q02763 23-1124): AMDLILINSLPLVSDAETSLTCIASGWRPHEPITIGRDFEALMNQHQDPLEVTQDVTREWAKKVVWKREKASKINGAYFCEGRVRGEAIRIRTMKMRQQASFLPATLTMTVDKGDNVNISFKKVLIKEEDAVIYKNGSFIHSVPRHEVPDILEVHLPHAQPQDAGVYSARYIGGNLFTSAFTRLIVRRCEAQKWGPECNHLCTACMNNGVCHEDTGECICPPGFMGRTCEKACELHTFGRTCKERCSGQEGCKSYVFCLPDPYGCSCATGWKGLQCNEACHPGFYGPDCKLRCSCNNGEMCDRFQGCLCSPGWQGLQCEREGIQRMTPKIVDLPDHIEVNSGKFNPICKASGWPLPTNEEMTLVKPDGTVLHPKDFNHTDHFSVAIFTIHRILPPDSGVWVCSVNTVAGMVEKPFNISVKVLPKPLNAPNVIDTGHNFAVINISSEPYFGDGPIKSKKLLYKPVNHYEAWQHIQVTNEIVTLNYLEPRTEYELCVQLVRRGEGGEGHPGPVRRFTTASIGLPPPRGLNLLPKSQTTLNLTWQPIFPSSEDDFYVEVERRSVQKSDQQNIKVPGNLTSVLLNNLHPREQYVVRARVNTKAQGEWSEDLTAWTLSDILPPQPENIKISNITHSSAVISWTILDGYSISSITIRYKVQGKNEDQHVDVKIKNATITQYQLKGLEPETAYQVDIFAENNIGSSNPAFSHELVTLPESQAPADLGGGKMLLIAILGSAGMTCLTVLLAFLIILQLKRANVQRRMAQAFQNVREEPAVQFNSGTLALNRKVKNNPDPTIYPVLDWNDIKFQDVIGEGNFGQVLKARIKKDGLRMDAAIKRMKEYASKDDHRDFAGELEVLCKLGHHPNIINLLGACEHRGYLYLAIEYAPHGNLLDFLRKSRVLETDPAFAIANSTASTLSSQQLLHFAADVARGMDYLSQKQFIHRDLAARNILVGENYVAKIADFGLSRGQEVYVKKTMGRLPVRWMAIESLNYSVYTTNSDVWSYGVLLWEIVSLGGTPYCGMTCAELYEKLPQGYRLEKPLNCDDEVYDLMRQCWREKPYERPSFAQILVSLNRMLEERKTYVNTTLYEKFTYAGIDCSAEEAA
FLT3, sequence (P36888 27-993): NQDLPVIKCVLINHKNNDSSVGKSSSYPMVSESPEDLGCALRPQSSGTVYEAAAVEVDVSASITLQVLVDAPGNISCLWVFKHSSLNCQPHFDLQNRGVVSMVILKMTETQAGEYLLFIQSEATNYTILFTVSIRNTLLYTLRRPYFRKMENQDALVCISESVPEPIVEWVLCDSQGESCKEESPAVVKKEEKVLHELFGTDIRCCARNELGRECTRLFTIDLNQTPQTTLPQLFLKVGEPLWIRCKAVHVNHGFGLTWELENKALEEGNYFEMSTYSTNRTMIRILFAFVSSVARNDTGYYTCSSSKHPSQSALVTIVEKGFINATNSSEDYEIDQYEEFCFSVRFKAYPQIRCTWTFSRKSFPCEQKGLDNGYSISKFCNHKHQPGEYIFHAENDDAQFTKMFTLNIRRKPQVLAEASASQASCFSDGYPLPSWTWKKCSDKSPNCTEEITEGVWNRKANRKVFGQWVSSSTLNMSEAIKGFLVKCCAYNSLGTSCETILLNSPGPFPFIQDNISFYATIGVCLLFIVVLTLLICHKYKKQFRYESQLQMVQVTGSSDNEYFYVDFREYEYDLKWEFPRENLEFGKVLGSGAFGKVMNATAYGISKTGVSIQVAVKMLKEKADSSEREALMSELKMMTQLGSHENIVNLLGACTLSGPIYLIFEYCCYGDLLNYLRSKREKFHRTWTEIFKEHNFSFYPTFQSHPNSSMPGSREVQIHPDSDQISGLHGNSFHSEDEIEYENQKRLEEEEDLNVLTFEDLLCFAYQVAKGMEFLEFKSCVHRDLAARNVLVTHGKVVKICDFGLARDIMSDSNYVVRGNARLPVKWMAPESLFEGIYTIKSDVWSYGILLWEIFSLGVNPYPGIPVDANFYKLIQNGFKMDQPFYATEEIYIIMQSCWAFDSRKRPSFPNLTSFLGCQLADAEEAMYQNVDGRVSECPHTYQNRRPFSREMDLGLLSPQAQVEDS
STK32B/YANK2, sequence (Q9NY57 whole entry): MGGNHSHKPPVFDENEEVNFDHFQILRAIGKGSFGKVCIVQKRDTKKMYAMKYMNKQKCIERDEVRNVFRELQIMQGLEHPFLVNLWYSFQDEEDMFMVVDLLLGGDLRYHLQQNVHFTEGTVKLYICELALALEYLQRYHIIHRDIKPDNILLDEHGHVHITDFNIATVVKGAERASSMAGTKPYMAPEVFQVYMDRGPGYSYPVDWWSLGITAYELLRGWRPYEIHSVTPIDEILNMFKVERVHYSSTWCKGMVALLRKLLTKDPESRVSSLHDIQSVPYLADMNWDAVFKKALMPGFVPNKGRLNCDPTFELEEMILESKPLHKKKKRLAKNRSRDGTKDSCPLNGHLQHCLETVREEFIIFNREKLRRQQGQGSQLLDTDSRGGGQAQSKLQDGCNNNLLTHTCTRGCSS
RIPK3, sequence (Q9Y572 whole entry): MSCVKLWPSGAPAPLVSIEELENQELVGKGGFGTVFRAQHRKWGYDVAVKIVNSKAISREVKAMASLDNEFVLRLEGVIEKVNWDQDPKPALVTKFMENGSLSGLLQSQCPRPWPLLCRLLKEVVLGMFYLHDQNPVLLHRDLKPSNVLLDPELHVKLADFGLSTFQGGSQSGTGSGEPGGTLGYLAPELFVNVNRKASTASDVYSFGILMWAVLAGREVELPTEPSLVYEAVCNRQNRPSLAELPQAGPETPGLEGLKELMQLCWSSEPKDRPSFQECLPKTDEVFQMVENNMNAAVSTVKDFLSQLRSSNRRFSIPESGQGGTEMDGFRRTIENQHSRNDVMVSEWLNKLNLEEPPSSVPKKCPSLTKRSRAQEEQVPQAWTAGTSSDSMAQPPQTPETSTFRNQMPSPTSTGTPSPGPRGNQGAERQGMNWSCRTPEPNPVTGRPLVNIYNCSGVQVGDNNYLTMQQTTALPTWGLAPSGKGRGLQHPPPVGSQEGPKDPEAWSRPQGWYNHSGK

CCN1CCN(C(=O)c2ccc(Nc3ncc4c(n3)N(C)C(=O)N(c3cc(NC(=O)Nc5ccccc5OC)ccc3C)C4)cn2)CC1 [Compound No. 14, 1-(3-(7-((6-(4-ethylpiperazin-1-carbonyl)pyridin-3-yl)amino)-1-methyl-2-oxo-1,4-dihydropyrimido[4,5-d]pyrimidin-3(2H)-yl)-4-methylphenyl)-3-(2-methoxyphenyl)urea]
≤ 30%: all assays above
